{"source": "paper PMC8847371", "about": "(Nature Communications, 2022)", "tested_on": "SARS-CoV-2 B.1.1.7 (alpha variant)", "assay_type": "cell-based", "details": "3 µM", "note": "Several values for one entry are separate records, joined by “and”; a condition that tells them apart may be missing. Equal entries are not always repeated."}
{"smiles": "N#C[C@@]1(c2ccc3c(N)ncnn23)O[C@H](CO)[C@@H](O)[C@H]1O", "note": "[GS-441524]", "values": [{"measurement": "Log vRNA", "value": "4 and 4.2 and 4.3"}]}
